The results in this text go back to US20250025439A1, “DERIVATIVES OF NIFUROXAZIDE FOR USE IN THE TREATMENT OF MITOCHONDRIAL DISORDERS AND NEURODEGENERATIVE DISEASES” (priority 2021, published 2025).

Test in all cases: Affinity chromatography with NFX-beads and mass spectrometry
Holding throughout (format): binding
What all share (conditions): spectral counts, NFX coupled beads vs beads alone, human fibroblast extracts

Assay [1] addresses T1, Mitogen-activated protein kinase (MAP4K4) (Homo sapiens, UniProt O95819).
T1 construct: Protein extracts from human fibroblasts were incubated with magnetic beads; endogenous in cells; host or cells: human fibroblast lysate
How it is done: (§1) Fibroblasts were trypsinized and washed with PBS 1× then incubated in lysis buffer on ice during 20 minutes (Lysis buffer: Tris-HCl pH 7.5 50 mM, EDTA 2 mM, Triton X-100 0.1% supplemented with anti-protease and anti-phosphatase (Complete-Mini™—Roche). After centrifugation 15 minutes, 13 000 rpm at 4° C., supernatant was conserved and the protein concentration was determined using the Pierce BCA assay kit (Thermo Fisher Scientific).
(§2) 10 μL of magnetic beads and NFX-beads were washed three times in Bead buffer before to be resuspended 100 μL of Bead buffer (Bead buffer: Tris-HCl pH 7.5 50 mM, NaCl 150 mM, Triton X-100 0.1%, supplemented with anti-protease and anti-phosphatase (Complete-Mini™—Roche)) thanks to a magnetic rack (DynaMag-2 Ref 12321D Life Technologies). 800 μg of proteins were mixed with 100 μL of diluted beads and the final volume was set to 800 μL with Bead buffer. The proteins and the beads were incubated 30 minutes with rotation in a cold room. Using a magnetic rack, the beads were separated from the protein extract and washed three time with Bead buffer before to be resuspended in 75 μL of Laemmli2X. Laemmli with beads was put 5 minutes at 95° C. to eluate the proteins and the beads were discarded using a magnetic rack. 35 μL of the eluted proteins were subjected to SDS-PAGE and silver coloration (ProteoSilver™ Silver Stain Kit—Sigma Aldrich). Bands of interest were extracted from the gel and subjected to mass spectrometry.
(§3) Mass spectrometric identification and quantification of the pulled down proteins were performed as previously described (Shrivastava et al., EMBO, 2019, 38:e99871). The raw data were cleaned using the following pathway. First, only the proteins found to interact with the NFX coupled beads in the three replicates were kept for further analysis. […] The final proteins were then classified based on the fold chance and the p-value.
(§4) Identification of the NFX intracellular targets is a crucial step in understanding its mechanisms of action and to be able to improve its efficiency on a rational basis. To purify NFX-binding proteins, affinity chromatography purification was performed using magnetic beads. Protein extracts from human fibroblasts were incubated with magnetic beads alone or to which NFX has been covalently coupled (Scheme 1). Eluted fractions were subjected to SDS-PAGE electrophoresis and silver staining (FIG. 9A). The pattern was clearly different between eluted proteins from NFX-beads compared to those eluted form beads alone with 13 bands either appeared or were of a higher intensity with the NFX-beads (FIG. 9B). Excised bands were subjected to proteolytic digestion and mass spectrometry.

In assay [2] the target is T2, Myotubularin-related protein 5 (SBF1) (Homo sapiens, UniProt O95248).
T2 construct: Protein extracts from human fibroblasts were incubated with magnetic beads; endogenous in cells; host or cells: human fibroblast lysate
How it is done: as §1, §2, §3, §4

In assay [3] the target is T3, Unconventional myosin-IXb (MYO9B) (Homo sapiens, UniProt Q13459).
T3 construct: Protein extracts from human fibroblasts were incubated with magnetic beads; endogenous in cells; host or cells: human fibroblast lysate
How it is done: as §1, §2, §3, §4

The target of the next assay is T4, Vigilin (HDLBP) (Homo sapiens, UniProt Q00341).
T4 construct: Protein extracts from human fibroblasts were incubated with magnetic beads; endogenous in cells; host or cells: human fibroblast lysate
T4 sequence (Q00341 1-1268): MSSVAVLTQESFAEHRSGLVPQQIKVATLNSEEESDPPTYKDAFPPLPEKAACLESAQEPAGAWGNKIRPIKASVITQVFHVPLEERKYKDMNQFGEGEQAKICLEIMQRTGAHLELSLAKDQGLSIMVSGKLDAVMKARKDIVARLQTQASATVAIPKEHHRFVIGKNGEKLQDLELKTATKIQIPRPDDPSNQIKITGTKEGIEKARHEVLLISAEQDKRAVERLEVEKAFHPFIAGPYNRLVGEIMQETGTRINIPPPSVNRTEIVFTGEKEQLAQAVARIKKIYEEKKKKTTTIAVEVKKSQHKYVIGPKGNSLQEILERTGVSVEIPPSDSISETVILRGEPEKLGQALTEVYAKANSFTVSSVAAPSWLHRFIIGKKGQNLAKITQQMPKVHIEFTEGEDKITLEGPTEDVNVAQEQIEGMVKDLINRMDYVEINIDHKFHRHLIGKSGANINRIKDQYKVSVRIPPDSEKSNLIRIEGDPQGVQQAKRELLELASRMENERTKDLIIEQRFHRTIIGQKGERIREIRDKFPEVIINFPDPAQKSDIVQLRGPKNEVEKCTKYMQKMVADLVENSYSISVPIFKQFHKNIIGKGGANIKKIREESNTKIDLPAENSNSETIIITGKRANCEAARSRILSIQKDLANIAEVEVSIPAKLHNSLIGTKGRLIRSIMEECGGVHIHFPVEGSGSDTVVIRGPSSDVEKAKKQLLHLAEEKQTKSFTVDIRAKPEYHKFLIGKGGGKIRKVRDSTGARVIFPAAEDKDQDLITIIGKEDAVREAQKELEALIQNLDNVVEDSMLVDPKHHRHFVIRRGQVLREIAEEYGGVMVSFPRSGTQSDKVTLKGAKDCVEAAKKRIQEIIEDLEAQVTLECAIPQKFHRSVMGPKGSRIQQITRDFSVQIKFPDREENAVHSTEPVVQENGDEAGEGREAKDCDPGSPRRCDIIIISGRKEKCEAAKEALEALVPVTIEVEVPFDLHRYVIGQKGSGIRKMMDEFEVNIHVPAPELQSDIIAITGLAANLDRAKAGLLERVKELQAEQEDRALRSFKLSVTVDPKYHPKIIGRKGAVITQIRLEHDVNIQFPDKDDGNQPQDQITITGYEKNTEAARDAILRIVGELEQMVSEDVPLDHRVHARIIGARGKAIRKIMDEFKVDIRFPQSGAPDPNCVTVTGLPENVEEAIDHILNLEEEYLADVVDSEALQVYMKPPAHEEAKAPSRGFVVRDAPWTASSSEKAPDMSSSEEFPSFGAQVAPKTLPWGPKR
The method, then:
as §1, §2, §3, §4

T2 sequence (O95248 whole entry): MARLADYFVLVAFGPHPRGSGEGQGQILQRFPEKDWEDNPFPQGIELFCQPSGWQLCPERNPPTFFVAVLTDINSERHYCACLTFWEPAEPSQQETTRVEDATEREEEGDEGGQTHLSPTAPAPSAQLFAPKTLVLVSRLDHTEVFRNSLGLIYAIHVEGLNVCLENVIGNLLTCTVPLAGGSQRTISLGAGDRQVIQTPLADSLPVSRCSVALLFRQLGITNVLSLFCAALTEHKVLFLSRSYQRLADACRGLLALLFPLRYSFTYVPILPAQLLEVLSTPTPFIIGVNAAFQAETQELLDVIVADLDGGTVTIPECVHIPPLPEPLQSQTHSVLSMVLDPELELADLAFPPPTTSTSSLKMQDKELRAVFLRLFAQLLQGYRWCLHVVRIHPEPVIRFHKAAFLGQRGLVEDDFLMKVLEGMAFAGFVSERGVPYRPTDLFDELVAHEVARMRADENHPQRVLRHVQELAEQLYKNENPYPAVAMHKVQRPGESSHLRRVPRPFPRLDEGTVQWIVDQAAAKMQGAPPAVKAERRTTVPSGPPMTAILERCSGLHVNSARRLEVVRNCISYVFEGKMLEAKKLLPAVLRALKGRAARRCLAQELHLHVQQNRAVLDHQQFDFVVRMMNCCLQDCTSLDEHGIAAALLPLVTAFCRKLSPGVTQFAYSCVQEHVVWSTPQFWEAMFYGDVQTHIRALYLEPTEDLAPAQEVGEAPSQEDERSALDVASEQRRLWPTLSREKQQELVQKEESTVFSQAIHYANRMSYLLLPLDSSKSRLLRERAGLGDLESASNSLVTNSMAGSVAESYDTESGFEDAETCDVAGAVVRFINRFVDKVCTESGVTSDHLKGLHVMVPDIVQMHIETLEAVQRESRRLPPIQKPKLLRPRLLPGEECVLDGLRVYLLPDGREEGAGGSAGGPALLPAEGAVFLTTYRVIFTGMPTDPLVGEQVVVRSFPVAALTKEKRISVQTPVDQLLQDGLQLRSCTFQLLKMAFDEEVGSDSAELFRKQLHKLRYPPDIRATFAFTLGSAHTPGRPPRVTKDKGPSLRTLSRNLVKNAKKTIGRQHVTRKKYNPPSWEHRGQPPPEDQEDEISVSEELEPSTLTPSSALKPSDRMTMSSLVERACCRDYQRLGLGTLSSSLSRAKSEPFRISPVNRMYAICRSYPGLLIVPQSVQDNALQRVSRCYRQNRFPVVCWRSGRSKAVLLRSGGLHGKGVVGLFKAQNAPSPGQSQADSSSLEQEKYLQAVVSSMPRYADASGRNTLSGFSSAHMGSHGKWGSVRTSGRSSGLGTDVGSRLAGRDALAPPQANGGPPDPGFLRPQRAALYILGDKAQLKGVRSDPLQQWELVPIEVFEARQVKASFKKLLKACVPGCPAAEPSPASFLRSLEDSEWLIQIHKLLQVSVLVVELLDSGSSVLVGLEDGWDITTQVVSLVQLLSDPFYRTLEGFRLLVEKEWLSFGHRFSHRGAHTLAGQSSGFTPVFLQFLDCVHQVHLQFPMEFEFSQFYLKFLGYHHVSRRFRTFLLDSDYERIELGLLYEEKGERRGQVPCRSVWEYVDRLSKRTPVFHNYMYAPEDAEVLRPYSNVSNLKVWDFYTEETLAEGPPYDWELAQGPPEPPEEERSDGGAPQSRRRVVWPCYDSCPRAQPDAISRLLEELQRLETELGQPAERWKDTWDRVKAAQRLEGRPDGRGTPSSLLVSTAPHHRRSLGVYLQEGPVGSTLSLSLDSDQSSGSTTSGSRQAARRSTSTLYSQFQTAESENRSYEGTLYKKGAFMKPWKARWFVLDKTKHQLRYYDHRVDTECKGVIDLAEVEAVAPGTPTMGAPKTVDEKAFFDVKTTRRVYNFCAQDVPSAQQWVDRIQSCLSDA
T3 sequence (Q13459 whole entry): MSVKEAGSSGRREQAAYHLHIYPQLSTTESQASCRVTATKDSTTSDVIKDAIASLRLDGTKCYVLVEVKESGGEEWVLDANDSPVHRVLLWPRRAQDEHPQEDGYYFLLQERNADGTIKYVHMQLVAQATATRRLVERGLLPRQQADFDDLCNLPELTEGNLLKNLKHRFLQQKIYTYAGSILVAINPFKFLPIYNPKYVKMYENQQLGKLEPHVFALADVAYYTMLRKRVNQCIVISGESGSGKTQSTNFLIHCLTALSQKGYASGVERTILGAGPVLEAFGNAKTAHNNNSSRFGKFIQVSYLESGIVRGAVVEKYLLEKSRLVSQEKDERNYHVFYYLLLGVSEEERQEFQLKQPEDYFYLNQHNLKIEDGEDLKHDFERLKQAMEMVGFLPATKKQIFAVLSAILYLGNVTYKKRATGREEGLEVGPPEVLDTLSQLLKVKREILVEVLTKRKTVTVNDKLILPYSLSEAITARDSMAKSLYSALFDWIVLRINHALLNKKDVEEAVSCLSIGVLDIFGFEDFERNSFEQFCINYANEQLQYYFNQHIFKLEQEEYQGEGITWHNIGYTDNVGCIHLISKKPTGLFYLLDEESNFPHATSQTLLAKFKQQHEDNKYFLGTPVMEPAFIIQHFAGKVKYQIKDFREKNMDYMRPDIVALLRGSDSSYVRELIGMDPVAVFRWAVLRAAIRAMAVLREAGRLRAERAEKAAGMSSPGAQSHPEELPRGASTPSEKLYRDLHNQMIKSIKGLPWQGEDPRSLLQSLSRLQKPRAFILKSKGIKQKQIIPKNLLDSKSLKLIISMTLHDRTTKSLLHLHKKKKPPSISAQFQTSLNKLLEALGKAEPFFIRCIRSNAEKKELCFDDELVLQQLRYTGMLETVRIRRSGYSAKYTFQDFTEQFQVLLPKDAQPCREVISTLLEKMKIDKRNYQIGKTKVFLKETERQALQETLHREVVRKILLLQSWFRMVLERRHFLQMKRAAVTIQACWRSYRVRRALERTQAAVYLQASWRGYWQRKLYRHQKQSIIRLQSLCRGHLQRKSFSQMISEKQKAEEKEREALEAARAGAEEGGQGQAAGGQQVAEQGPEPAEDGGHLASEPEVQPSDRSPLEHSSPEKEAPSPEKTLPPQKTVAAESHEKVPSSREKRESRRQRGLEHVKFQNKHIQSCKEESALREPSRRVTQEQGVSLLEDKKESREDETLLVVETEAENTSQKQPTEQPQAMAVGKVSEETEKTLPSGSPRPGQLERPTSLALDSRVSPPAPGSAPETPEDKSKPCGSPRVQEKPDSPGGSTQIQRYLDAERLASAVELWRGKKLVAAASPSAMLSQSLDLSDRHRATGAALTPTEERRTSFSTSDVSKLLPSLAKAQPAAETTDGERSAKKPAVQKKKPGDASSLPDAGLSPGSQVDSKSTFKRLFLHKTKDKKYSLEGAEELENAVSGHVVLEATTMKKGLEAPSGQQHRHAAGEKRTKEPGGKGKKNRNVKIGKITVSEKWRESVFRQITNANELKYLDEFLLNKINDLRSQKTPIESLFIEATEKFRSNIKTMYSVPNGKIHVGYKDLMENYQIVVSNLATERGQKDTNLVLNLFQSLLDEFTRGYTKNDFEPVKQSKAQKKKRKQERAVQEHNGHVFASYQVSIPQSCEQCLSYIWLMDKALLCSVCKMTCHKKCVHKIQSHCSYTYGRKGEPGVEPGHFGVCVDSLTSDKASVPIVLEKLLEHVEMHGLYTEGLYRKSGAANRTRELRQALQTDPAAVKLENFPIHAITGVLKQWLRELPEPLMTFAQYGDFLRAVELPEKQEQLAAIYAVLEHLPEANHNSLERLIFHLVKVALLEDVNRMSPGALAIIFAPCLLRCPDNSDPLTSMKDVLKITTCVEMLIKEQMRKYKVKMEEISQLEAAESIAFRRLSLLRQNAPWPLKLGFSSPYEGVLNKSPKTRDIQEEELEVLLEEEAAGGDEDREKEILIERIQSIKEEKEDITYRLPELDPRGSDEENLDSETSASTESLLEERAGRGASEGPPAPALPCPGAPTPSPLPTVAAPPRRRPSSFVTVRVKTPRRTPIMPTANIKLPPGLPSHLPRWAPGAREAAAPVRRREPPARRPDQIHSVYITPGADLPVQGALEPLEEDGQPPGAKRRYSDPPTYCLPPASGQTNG

On to `O=C(N/N=C/c1ccc([N+](=O)[O-])o1)c1ccc(O)cc1` [NFX, (E)-4-hydroxy-N′-((5-nitrofuran-2-yl)methylene)benzohydrazide], for which the Fold change in assay [1] was found to be 29.76; in assay [2] it was 41.35; in assay [3] it was 34.52; on Vigilin (HDLBP) it was 77.14.
